For the assay, the target named is T1, Cytochrome P450 11B1, mitochondrial (Homo sapiens, UniProt P15538).
T1 sequence (P15538 whole entry): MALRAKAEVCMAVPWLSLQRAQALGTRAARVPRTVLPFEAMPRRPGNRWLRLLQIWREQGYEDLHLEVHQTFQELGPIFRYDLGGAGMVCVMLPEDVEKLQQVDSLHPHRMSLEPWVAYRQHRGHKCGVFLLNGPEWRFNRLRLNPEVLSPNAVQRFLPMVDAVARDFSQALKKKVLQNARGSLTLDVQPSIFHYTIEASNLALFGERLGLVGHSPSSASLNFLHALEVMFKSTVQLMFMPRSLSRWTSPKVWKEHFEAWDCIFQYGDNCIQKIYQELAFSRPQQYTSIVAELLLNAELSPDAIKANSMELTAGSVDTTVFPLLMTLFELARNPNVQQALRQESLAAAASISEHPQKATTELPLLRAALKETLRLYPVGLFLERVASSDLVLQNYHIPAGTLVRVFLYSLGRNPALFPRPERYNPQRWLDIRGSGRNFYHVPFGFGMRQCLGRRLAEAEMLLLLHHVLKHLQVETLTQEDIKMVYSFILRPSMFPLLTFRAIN

In turn, `O=C(N1CCc2cc(-c3cncc(F)c3)cc(Cl)c21)C(F)(F)F` [US9745282, 32] displayed an IC50 of 525 nM.
Molecule `O=C(N1CCc2cc(-c3cncc(F)c3)cc(F)c21)C(F)(F)F` [US9745282, 33] displayed a half-maximal inhibitory concentration (IC50) of 1410 nM.
Take `CC(=O)N1CCc2cc(-c3cncc(F)c3C)cc(Cl)c21` [US9745282, 8]: 270 nM corresponded to half-maximal inhibition (IC50).
Under `CC(=O)N1CCc2cc(-c3cnccc3C)cc(F)c21` [US9745282, 15] stands 68 nM; under `CC(C)C(=O)N1CCc2cc(-c3cncc4ccccc34)ccc21` [US9745282, 30], 3720 nM.

Source of the values: BindingDB's records for patent US9745282 (Merck Sharp & Dohme Corp, 2017).
